The results in this text go back to US11969428B2, “Methods and pharmaceutical compositions for treating lymphoid malignancy” (priority 2011, dated 2024).

The test system of this assay is primary human T-ALL tumor cells. The assay is described as follows: Primary T-ALL cell viability on MS5-DL1 stroma. The following applies: primary T-ALL devoid of PTEN; 72 hours. It is filed as cell-based. Here is the method: Cell proliferation of CCRF-CEM cells or shRNA transfected CCRF-CEM cells, in the presence or absence of appropriate drug, was followed by cell counting of samples in triplicate using a hemocytometer and trypan blue. For apoptosis determinations of untransfected or shRNA transfected CCRF-CEMs, cells were stained with APC-conjugated Annexin-V (BD Biosciences) in Annexin Binding Buffer (Miltyeni Biotec) and analyzed by flow cytometry. For primary T-ALL samples, cell viability was assessed using the BD Cell Viability kit (BD Biosciences) coupled with the use of fluorescent counting beads as previously described (Armstrong et al., 2009). For this, cells were plated with MS5-DL1 stroma cells, and after 72 hours following drug treatment cells were harvested and stained with an APC-conjugated anti-human CD45 followed by a staining with the above kit according to the manufacturer's instructions.

Regarding `Cc1ccccc1-n1c(C(C)Nc2nc(N)nc3nc[nH]c23)nc2cccc(C)c2c1=O` (stereo not shown) [CAL-130], the tumor cell viability result is given as “reduction in tumor cell viability”.
